Results published in ChEMBL document CHEMBL5465560, “Selectivity Literature for EUbOPEN Chemogenomic Library” (2024).
One block for each compound: values may come before it.

Key:
[1] = molecular target: T1, Serine/threonine-protein kinase TBK1 (Homo sapiens) (UniProt Q9UHD2); experiment: Selectivity interaction (Ambit KINOMEscan and KiNATiv profiling in Jurkat cells) EUB0000090b TBK1; format: cell-based; conditions: at 1 µM
T1 sequence (whole entry): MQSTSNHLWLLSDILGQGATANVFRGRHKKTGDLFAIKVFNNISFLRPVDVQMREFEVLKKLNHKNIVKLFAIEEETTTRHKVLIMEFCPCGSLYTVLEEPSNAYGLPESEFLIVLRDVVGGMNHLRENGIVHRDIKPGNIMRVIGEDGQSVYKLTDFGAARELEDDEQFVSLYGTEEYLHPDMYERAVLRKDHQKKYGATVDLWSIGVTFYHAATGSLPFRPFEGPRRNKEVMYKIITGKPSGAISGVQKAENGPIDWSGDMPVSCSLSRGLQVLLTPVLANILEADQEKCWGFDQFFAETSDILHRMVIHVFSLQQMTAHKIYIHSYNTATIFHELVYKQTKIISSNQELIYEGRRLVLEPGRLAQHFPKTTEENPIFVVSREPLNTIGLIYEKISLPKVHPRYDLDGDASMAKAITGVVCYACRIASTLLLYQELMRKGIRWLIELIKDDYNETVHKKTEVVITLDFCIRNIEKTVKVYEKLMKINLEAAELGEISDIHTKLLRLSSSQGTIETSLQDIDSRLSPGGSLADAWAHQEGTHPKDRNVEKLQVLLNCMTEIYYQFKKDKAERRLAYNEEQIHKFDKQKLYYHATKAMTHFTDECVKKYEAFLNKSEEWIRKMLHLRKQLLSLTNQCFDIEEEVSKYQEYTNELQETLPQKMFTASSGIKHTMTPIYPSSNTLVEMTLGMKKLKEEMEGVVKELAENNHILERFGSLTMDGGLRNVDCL

[2] = molecular target: Serine/threonine-protein kinase Chk2 (Homo sapiens) (UniProt O96017); experiment: Selectivity interaction (Kinase panel (literature)) EUB0001199aCl CHEK2; conditions: at 1 µM
[3] = molecular target: Cyclin-dependent kinase-like 1 (Homo sapiens) (UniProt Q00532); experiment: Selectivity interaction (KinomeScan (DiscoverX)) EUB0000655a CDKL1; conditions: at 10 µM
[4] = molecular target: Casein kinase I isoform delta (Homo sapiens, UniProt P48730); experiment: Selectivity interaction (KinomeScan (DiscoverX)) EUB0001079a CSNK1D; conditions: at 1 µM
[5] = molecular target: Fibroblast growth factor receptor 3 (Homo sapiens, UniProt P22607); experiment: (§1) Selectivity interaction (KinomeScan (DiscoverX)) EUB0000618a FGFR3; conditions: at 10 µM
[6] = system: Fibroblast growth factor receptor 3 (Homo sapiens), P22607 [G697C]; experiment: as §1; conditions: at 10 µM
[7] = molecular target: Mitogen-activated protein kinase 10 (Homo sapiens, UniProt P53779); experiment: Selectivity interaction (Kinase panel (Invitrogen)) EUB0000639a MAPK10; conditions: at 200 nM
[8] = molecular target: T2, Phosphatidylinositol 4,5-bisphosphate 3-kinase catalytic subunit delta isoform (Homo sapiens) (UniProt O00329); experiment: Selectivity interaction (KinomeScan (DiscoverX)) EUB0000229b PIK3CD; conditions: at 10 µM
T2 sequence (whole entry): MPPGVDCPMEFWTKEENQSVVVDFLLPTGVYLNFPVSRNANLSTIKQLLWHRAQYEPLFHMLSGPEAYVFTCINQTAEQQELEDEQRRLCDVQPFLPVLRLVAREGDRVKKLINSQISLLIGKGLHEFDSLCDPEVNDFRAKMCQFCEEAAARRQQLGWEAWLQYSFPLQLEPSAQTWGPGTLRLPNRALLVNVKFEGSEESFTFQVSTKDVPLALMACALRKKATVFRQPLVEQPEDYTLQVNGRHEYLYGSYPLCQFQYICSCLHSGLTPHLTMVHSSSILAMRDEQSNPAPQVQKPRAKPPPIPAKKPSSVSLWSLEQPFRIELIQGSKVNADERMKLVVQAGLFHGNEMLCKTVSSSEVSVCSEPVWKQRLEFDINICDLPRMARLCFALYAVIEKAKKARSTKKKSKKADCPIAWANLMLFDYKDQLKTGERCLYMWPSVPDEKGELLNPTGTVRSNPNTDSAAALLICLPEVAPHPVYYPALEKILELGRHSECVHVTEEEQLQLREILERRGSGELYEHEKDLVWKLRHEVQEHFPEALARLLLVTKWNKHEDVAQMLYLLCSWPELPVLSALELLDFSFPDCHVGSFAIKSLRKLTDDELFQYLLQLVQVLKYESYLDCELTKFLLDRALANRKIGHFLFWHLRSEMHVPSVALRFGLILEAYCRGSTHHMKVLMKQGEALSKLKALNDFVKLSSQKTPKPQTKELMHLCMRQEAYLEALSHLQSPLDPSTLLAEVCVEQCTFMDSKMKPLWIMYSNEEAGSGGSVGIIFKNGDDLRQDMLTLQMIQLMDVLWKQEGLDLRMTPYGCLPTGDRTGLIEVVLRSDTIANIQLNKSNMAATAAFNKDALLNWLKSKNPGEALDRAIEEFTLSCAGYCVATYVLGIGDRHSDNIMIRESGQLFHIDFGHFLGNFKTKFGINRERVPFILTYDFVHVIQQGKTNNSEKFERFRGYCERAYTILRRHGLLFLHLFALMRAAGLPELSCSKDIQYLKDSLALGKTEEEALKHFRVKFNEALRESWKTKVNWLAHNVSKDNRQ

[9] = molecular target: MAP kinase-interacting serine/threonine-protein kinase 1 (Homo sapiens) (UniProt Q9BUB5); experiment: Selectivity interaction (KinomeScan (DiscoverX)) EUB0000092b MKNK1; conditions: at 10 µM
[10] = molecular target: T3, Tyrosine-protein kinase ITK/TSK (Homo sapiens) (UniProt Q08881); experiment: Selectivity interaction (KinomeScan (DiscoverX)) EUB0000092b ITK; conditions: at 10 µM
T3 sequence (whole entry): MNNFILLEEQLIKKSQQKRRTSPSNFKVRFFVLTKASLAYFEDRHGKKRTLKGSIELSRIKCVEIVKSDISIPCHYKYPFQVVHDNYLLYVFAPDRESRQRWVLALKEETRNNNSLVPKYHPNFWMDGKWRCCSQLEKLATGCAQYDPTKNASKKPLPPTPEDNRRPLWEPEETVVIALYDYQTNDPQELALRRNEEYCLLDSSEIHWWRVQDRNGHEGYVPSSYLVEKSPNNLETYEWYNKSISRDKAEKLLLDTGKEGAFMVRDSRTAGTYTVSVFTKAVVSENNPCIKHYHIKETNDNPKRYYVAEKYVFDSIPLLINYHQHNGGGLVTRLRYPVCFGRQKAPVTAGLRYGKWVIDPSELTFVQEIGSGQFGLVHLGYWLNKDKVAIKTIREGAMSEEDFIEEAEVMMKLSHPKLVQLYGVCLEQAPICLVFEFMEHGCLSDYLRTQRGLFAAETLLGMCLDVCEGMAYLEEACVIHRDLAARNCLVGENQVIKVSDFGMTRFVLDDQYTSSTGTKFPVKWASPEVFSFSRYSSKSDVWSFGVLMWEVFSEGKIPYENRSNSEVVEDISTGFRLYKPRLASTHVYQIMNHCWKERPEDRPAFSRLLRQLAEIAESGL

[11] = molecular target: Myosin light chain kinase family member 4 (Homo sapiens, UniProt Q86YV6); experiment: Selectivity interaction (Enzymatic assay) EUB0001550a MYLK4
Myosin light chain kinase family member 4, sequence (Q86YV6 whole entry): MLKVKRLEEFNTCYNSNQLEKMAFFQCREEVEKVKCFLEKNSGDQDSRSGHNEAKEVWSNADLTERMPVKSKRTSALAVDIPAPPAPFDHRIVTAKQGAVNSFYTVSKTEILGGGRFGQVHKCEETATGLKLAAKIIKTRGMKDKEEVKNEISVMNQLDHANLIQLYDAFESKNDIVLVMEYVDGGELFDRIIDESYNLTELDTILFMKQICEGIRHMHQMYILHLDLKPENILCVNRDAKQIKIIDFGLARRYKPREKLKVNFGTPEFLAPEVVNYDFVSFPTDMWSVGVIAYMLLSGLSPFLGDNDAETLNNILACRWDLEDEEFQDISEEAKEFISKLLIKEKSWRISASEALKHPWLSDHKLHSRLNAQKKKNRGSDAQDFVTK

Casein kinase I isoform delta, sequence (P48730 whole entry, looked up, canonical isoform): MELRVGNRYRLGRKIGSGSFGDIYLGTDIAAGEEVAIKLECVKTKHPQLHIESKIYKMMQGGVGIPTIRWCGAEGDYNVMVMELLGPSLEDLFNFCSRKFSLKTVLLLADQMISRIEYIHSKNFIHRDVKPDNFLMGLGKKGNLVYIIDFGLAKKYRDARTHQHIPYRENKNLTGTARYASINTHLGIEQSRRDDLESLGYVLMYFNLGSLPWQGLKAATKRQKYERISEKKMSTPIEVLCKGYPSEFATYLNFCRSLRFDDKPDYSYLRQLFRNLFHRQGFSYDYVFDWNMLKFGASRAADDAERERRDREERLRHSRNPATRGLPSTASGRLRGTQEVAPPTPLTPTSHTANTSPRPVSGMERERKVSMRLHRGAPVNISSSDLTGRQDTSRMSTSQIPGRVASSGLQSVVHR
MAP kinase-interacting serine/threonine-protein kinase 1 (Homo sapiens), sequence (Q9BUB5 whole entry, looked up): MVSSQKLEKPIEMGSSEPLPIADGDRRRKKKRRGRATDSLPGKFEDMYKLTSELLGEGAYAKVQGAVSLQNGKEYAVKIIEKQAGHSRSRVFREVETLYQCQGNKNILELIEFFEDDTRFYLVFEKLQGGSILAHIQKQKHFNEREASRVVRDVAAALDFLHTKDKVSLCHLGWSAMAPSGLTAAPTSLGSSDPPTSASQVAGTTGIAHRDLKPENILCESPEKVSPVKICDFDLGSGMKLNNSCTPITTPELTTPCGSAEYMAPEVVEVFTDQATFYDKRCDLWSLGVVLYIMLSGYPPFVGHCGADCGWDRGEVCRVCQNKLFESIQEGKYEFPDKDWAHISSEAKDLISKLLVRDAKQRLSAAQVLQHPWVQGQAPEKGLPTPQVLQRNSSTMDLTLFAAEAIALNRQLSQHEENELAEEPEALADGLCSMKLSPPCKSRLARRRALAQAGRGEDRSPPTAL
Mitogen-activated protein kinase 10, sequence (P53779 whole entry, canonical isoform): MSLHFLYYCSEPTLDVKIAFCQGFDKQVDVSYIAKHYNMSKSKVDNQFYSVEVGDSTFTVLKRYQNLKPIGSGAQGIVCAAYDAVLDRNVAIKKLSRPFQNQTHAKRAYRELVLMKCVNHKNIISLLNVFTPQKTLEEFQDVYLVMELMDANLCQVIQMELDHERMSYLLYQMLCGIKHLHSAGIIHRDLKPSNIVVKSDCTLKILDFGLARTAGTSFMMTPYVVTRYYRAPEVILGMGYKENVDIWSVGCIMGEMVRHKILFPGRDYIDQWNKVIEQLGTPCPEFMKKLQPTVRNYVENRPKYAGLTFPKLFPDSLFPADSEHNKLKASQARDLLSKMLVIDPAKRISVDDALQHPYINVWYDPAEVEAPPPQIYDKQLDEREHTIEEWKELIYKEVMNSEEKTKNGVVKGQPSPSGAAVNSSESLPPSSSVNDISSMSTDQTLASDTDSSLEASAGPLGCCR
Serine/threonine-protein kinase Chk2 (Homo sapiens), sequence (O96017 whole entry): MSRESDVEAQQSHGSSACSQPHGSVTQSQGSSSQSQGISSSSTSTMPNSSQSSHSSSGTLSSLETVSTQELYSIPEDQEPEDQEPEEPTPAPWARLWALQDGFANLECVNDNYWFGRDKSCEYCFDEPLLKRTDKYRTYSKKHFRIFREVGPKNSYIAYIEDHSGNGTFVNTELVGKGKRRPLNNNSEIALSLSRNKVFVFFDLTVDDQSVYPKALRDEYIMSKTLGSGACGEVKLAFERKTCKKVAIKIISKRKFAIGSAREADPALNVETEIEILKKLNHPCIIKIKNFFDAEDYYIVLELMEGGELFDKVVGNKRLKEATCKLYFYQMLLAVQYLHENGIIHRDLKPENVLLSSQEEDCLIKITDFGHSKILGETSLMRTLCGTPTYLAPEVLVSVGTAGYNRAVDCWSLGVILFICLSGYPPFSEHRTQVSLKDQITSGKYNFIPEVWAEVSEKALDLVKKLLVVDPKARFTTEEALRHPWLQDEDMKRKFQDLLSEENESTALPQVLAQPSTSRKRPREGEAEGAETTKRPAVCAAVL
Cyclin-dependent kinase-like 1 (Homo sapiens), sequence (Q00532 whole entry, canonical isoform): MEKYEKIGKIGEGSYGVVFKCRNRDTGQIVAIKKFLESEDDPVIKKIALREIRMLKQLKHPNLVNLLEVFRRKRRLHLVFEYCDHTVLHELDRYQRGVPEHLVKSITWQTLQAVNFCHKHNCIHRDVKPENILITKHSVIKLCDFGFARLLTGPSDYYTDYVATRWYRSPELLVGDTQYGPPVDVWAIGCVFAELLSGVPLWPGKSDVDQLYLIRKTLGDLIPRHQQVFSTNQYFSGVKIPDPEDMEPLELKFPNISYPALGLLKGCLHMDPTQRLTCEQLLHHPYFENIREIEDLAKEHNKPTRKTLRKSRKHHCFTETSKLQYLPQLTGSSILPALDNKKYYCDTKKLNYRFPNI
Fibroblast growth factor receptor 3 (Homo sapiens), P22607 [G697C], sequence (P22607 whole entry G697C): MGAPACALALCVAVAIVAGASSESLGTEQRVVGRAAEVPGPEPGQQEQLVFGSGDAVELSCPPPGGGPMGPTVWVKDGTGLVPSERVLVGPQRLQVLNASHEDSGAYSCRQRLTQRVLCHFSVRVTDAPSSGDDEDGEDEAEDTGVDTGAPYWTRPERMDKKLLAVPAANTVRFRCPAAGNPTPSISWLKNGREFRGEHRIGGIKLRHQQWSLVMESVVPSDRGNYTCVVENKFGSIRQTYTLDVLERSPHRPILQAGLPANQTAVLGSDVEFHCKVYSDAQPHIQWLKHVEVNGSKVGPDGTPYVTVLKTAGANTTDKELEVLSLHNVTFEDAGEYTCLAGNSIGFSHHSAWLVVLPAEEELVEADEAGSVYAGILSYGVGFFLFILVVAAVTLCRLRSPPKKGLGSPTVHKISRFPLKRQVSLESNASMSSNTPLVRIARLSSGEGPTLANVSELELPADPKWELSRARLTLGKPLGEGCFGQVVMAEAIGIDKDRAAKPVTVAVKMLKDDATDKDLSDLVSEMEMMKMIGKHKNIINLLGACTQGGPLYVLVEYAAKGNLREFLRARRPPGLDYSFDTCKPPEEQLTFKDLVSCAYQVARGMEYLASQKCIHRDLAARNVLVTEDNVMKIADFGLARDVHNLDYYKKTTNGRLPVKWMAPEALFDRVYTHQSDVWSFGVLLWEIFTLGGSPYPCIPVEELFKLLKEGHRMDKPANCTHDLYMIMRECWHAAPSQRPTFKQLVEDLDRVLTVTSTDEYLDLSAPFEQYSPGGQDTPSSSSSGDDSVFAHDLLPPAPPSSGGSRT
Fibroblast growth factor receptor 3, sequence (P22607 23-806 limits assumed): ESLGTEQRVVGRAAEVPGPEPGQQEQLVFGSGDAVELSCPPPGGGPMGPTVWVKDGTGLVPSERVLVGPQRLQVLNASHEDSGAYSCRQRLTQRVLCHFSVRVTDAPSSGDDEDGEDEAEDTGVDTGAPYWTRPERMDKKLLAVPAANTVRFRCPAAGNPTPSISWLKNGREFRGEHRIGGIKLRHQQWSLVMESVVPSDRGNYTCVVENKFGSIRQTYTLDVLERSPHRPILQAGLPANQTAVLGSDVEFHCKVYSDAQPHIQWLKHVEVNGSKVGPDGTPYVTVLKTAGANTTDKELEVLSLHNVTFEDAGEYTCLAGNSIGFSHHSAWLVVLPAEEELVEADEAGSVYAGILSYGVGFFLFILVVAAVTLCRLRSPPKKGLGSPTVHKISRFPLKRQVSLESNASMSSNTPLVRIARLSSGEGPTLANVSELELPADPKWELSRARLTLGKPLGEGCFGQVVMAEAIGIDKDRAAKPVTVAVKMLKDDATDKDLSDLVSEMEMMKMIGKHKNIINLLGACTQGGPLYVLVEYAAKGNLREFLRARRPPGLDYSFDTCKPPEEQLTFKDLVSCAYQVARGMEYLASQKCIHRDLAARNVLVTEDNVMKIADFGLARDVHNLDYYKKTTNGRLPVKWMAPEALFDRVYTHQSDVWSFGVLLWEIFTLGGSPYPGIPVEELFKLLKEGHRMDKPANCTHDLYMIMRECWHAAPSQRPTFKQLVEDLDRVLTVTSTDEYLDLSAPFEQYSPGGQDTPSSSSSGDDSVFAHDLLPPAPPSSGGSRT

SMILES: CN(C)C/C=C/C(=O)Nc1ccc(C(=O)N2CCCC(Nc3ncc(Cl)c(-c4c[nH]c5ccccc45)n3)C2)cc1 (stereo unspecified)
% of control [1]: 96%

% of inhibition [2]: 0%
SMILES: CN1Cc2nccc(-c3cn(C)nc3-c3ccc(F)cc3)c2C1=O

SMILES: CN(C)CCOc1ccc(-c2nc(-c3ccncc3)c(-c3ccc4c(c3)CC/C4=N\O)[nH]2)cc1
% of control [3]: 100%

SMILES: Nc1cnc(N2CCc3cc(S(=O)(=O)Nc4c(F)cc(Cl)cc4F)cc(N4CCCC4=O)c32)nc1 [TP-020n]
% of control [4]: 98%

SMILES: O[C@H]1CC[C@H](Nc2ncc3nc(Nc4c(F)cc(F)cc4F)n([C@H]4CCOC4)c3n2)CC1
% of control [5]: 88%
% of control [6]: 82%

% of inhibition [7]: 6.65%
SMILES: CC[C@@H]1[C@H](F)C(=O)N[C@@H]1COc1nccc2cc(C(N)=O)c(OC)cc12 [ZIMLOVISERTIB]

SMILES: COc1cc(N(C)c2ccnc3ccc(C(F)(F)F)cc23)cc(OC)c1OC
% binding [8]: 86%

SMILES: CCC(=O)N1CCN(c2ccc(-n3c(=O)ccc4cnc5ccc(-c6cnc7ccccc7c6)cc5c43)cc2C(F)(F)F)CC1
% of control [9]: 44%
% of control [10]: 100%

IC50 [11]: 66 nM
SMILES: CN(C)CC#Cc1ccc2[nH]c3c(c2c1)-c1nc(N)ncc1CCC3
